Data: article PMC6838876 (Heliyon, 2019)
Marks after values point to notes of the source that are not given here. Each block holds one compound with its values, some of them ahead of it.

Assays:
[1] = Urinary excretion rate after oral gavage to non-fasted rats (HPLC of urine, free and conjugated forms); assay type: in vivo, Male Wistar rats; conditions: 40 mg/kg BW gavage; for Total urinary excretion rate at 48 h: all free and conjugated HAs
Experimental: The urine samples were stored at -80 °C until analysis. The rats were fed the AIN-93M diet throughout the experiment. This study was approved by the Animal Care Committee of Kindai University (permit number KABT-24-002), and the animals were maintained in accordance with the guidelines. Sample size, dose, and duration of urine collection were determined on the basis of our preliminary experiments.
The HA composition in urine was determined by the method described by Zhao et al. with a modification. […] The urine sample (20 μL) was added to 360 μL of acetic acid buffer (pH 5.0) containing 10 μg/mL sinapinic acid (internal standard) and 20 μL of acetic acid buffer (pH 5.0). The mixed solution was filtered through a 0.20 μm disposable syringe filter unit. The filtrate was analyzed by HPLC to quantify free forms of the HAs. Enzymatic hydrolysis was used to determine conjugated forms (glucuronidated and/or sulfated forms). The urine sample (20 μL) was added to 360 μL of acetic acid buffer (pH 5.0) containing 10 μg/mL sinapinic acid (internal standard) and 20 μL of β-glucuronidase type H-2 (containing both β-glucuronidase and sulfatase activity). […] The mixture was saturated with nitrogen gas and incubated at 37 °C for 2 h, followed by filtration through a 0.20 μm disposable syringe filter unit. The filtrate was analyzed by HPLC and the total amount of HAs (free forms and conjugated forms) was quantified. The conjugated HA levels were calculated by subtracting the amount of HA free forms from the total amount of HAs. […] The separation was performed using a 0.1% (v/v) trifluoroacetic acid–methanol solution (75:25, v/v) as the mobile phase at a flow rate of 1.0 mL/min at 40 °C. The injection volume was 10 μL. p-Coumaric acid was detected at 309 nm and the other HAs as well as sinapinic acid were detected at 325 nm based on the maximum absorbance. The urinary excretion rate was calculated as the percentage of the dose (mol/mol).

[2] = rats fed supplemented diet; cited from earlier work
[3] = design: method as in PMID 12097677, PMID 12730422; conditions: cited from earlier work
[4] = design: method as in PMID 16608213; conditions: fasted rats, cited from earlier work

Caffeic acid urinary excretion rate ([1]; urine 0-6 h): 7.1 % of the dose
SMILES: O=C(O)/C=C/c1ccc(O)c(O)c1 [Caffeic acid, caffeic acid]

Chlorogenic acid excreted in the urine at 48 h ([1]; urine 0-48 h, free form, mean ± SE n = 4, 40 mg/kg): 0.04 ± 0.005^a % of the dose | Chlorogenic acid excreted in the urine at 48 h ([1]; urine 0-48 h, free form, mean ± SE n = 4, listed as chlorogenic acid, 40 mg/kg): 0.04 % of the dose
SMILES: O=C(/C=C/c1ccc(O)c(O)c1)O[C@@H]1C[C@](O)(C(=O)O)C[C@@H](O)[C@H]1O [Chlorogenic acid, chlorogenic acid]
Urinary excretion of chlorogenic acid or the total amount of caffeic, ferulic, and isoferulic acids [2]: less than 1 % of the chlorogenic acid intake

Total urinary excretion rate at 48 h ([1]; mean ± SE n = 4, 40 mg/kg): 73.2 ± 2.1 % of the dose | Total urinary excretion rate at 48 h ([1]; mean ± SE n = 4, listed as ferulic acid, 40 mg/kg): 73.2 % of the dose | Ferulic acid excreted in the urine at 48 h ([1]; urine 0-48 h, free form, mean ± SE n = 4): 3.01 ± 0.38^a % of the dose | Ferulic acid conjugates excreted in the urine at 48 h ([1]; urine 0-48 h, mean ± SE n = 4): 70.2 ± 6.8^b % of the dose | Ferulic acid conjugates urinary excretion rate ([1]; urine 0-6 h): 64.1 % of the dose | Ferulic acid urinary excretion rate ([1]; urine 0-6 h): 3.0 % of the dose | Percentage of conjugates in the total urinary excretion ([1]; urine at 48 h): 96%
SMILES: COc1cc(/C=C/C(=O)O)ccc1O [Ferulic acid, ferulic acid]
Ingested ferulic acid recovered as conjugated forms in the urine [3]: 50–70%

p-Coumaric acid urinary excretion rate ([1]; urine 0-6 h): 14.2 % of the dose
SMILES: O=C(O)/C=C/c1ccc(O)cc1 [p-Coumaric acid, p-coumaric acid]
Ingested p-coumaric acid found in the urine as an intact form ([4]; gavage): 23% | Time after gavage within which the majority of p-coumaric acid was detected in urine [4]: ≤ 4 h
